In brackets after ≈: the same amount, converted by molar mass.
Key:
B16-F1 TRCs [1] = assay: Cell cycle analysis (BrdU flow cytometry), S phase of TRCs; format: cell-based, murine; settings: 10 μM, 24 hours
Protocol: For Annexin-V and PI staining to quantify cell apoptosis, treated TRCs were isolated from 3D fibrin gel by using 5 mg mL^−1 Dispase II (Sigma), cells were labeled with FITC-conjugated Annexin-V and PI according to the manufacturer’s instruction (Biolegend). Data were acquired on a BD Cantoll (BD biosciences) and analyzed with FlowJo software. For BrdU staining to quantify cell proliferation, cells were labeled with FITC-conjugated anti-BrdU antibody according to the manufacturer’s instruction (FITC BrdU Flow Kit, BD Biosciences) and then data were acquired on an Accuri C6 (BD Biosciences) and analyzed with BD Accuri C6 software.
Supplementary Figure 13. WYC-209 blocks S phase of TRCs. Different cancer cell lines cultured in 3D soft fibrin gel on day 0, then treated with 0.1, 1, or 10 μM WYC-209, WYC-209A, WYC-209B on day 4, isolated cells after 24 hours and labeled with FITC-conjugated anti-BrdU antibody for cell cycle analysis, 10 μM ATRA and Tazarotne as positive controls. (a) Representative images of flow cytometry in different conditions. (b) Quantification of S phase ratio in different conditions. Mean ± s.e.m.; n=3 independent experiments; * P<0.05; ** P<0.01; *** P<0.001 (Student’s t-test).
(1 picture or pasted object on this page, not shown here)

B16-F1 TRCs [2] = assay: Colony growth of B16-F1 TRCs in 90-Pa 3D soft fibrin gels; format: cell-based, murine; settings: for inhibition at 10 µM: B16-F1, 10 μM; for Rescue of TRC growth from inhibitory effects of Tazarotene by pretreatment: pretreated 3 h before 0.1 or 1 μM Tazarotene; for Rescue of TRC growth from inhibitory effects of WYC-209 by pretreatment: pretreated 3 h before 0.1 or 1 μM WYC-209, day 5
[3] = tested on: human malignant melanoma A375; assay: Colony growth of A375 TRCs in 90-Pa fibrin gels; format: cell-based; settings: pretreated 3 h before 0.1 or 1 μM WYC-209, day 7
Protocol: Salmon fibrinogen and thrombin were purchased from Reagent Proteins (CA, USA). 3D fibrin gels were prepared as described previously[5],[6]. In brief, fibrinogen was diluted into 2 mg mL^−1 with T7 buffer (pH 7.4, 50 mM Tris, 150 mM NaCl). Cells were detached from 2D rigid dishes and cell density was adjusted to 10^4 cells per mL. Fibrinogen and cell solution mixture were made by mixing the same volume of fibrinogen solution and cell solution, resulting in 1 mg mL^−1 fibrinogen and 5000 cells per mL in the mixture fibrin gels. A volume of 50 μL cell/fibrinogen mixture was seeded into each well of 96-well plate and mixed well with pre-added 1 μL thrombin (100 U mL^−1). The cell culture plate was then incubated in 37 °C cell culture incubator for 10 min. Finally, 200 μL of DMEM medium containing 10% FBS and antibiotics was added.

mouse RARs = biological target: mouse RARs; parameters: method as in earlier work; settings: ref 1 (supplement); read-out: published Kd values to mouse RARs; cited from earlier work
melanoma TRCs = tested on: melanoma TRCs; parameters: method as in PMID 25099074; settings: high concentrations (1 and 100 μM); cited from earlier work
[4] = parameters: method as in doi:10.1016/j.jaad.2003.11.002; settings: cited from earlier work
Water solubility = settings: pH 7.4, aqueous buffer, kinetic from dmso stock
CYP 2C19 = biological target: T1, CYP 2C19 (Homo sapiens, UniProt P33261); assay: Cytochromes enzyme inhibition assay, human liver microsomes; format: in vitro ADME; settings: substrate S-mephenytoin (35 µM)
T1 construct: from tissue; host or cells: human liver microsomes

[5] = Mus musculus, treated on day 0, day 5

T1 sequence (P33261 whole entry): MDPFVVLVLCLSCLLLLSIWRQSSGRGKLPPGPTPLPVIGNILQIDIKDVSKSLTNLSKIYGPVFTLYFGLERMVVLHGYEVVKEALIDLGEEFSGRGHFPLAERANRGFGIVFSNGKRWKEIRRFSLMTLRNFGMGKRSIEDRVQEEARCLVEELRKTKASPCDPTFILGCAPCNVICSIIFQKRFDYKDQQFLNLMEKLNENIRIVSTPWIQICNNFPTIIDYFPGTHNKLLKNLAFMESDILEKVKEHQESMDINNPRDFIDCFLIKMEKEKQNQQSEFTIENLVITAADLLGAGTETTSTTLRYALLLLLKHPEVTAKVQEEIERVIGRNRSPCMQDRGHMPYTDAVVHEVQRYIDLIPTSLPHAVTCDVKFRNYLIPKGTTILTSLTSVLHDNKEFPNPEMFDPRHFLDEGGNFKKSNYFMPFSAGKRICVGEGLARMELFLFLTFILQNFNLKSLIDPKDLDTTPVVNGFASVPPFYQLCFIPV

In the case of `CCOC(=O)c1ccc(C#Cc2ccc3c(c2)C(C)(C)CCS3)nc1` [Tazarotene, reference compound], the “Decrease of S phase of TRCs” value (B16-F1 TRCs [1]) is reported as ~ 45%, the “Growth inhibition at 10 μM” value (B16-F1 TRCs [2]; 10 μM, treated on day 0, day 5, 10 µM) is reported as 71% and the inhibition at 10 µM (B16-F1 TRCs [2]; [5]) is reported as 71.2%. It also gave an IC50 (B16-F1 TRCs [2]; Mus musculus, B16-F1 in 90-Pa fibrin gels, treated on day 0, colony size on day 5) of 1720 nM.
For `COC(=O)CC[C@H](NC(=O)[C@H](CC(=O)OC)NC(=O)OCc1ccccc1)C(=O)N[C@H](C(=O)N[C@@H](CC(=O)OC)C(=O)CF)C(C)C` [z-DEVD-FMK, reference compound], the “Rescue of A375 TRC growth from WYC-209 inhibition by pretreatment” value [3] was “substantially rescued growth”, the “Rescue of TRC growth from inhibitory effects of Tazarotene by pretreatment” value (B16-F1 TRCs [2]) was “could not rescue growth” and the “Rescue of TRC growth from inhibitory effects of WYC-209 by pretreatment” value (B16-F1 TRCs [2]) was “substantially rescued growth”.
In the case of `CC1=C(/C=C/C(C)=C/C=C/C(C)=C/C(=O)O)C(C)(C)CCC1` [ATRA, all-trans retinoic acid, reference compound], the “Decrease of S phase of TRCs” value (B16-F1 TRCs [1]) is listed as ~55%, the inhibition at 10 µM (B16-F1 TRCs [2]; [5]) is listed as 80% and the Kd (mouse RARs) is listed as 0.2 to 0.36 nM.
In the case of `N.N.[Cl][Pt][Cl]` [cisplatin], the TRCs not killed (melanoma TRCs) is listed as 20–30%.
In the case of `CC1(C)CC[S+]([O-])c2ccc(C#Cc3ccc(C(=O)O)cn3)cc21` (centres unmarked) [AGN 190844], the “Activity after oxidation of the sulfur atom on Tazarotene” value [4] is listed as “loses its activity”.
For `CC(C)NCC(O)COc1cccc2ccccc12` (centres unmarked) [Propranolol, reference compound], the solubility at 1 h (Water solubility) was > 100 µM.
For `COc1ccc2[nH]c([S+]([O-])Cc3ncc(C)c(OC)c3C)nc2c1` (centres unmarked) [omeprazole, reference compound], the IC50 (CYP 2C19) was 4.99 µM.
With `CCc1ccc(C2=CC(C)(C)Sc3ccc(C#Cc4ccc(C(=O)O)cc4)cc32)cc1` [AGN-194310, reference compound] the “Rescue of TRC growth from inhibitory effects of WYC-209 by pretreatment” value (B16-F1 TRCs [2]) was “rescued the TRC growth”.
In the case of `CC(=O)N1CCN(c2ccc(OCC3COC(Cn4ccnc4)(c4ccc(Cl)cc4Cl)O3)cc2)CC1` (centres unmarked) [Ketoconazole, reference compound], the solubility at 1 h (Water solubility; PBS (pH 7.4)) is reported as 49.3 µM (≈ 26.2 µg/mL).
In the case of `COc1cccc2c1C(=O)c1c(O)c3c(c(O)c1C2=O)C[C@@](O)(C(=O)CO)C[C@@H]3O[C@H]1C[C@H](N)[C@H](O)[C@H](C)O1` [doxorubicin], the TRCs not killed (melanoma TRCs) is listed as 20–30%.
With `CC1(C)CC=C(c2cnc3ccccc3c2)c2cc(C(=O)Nc3ccc(C(=O)O)cc3)ccc21` [BMS195614, reference compound] the “Impact of antagonist alone on TRC growth” value (B16-F1 TRCs [2]) was “no impact on TRC growth”, the “Rescue of TRC growth from inhibitory effects of Tazarotene by pretreatment” value (B16-F1 TRCs [2]) was “rescuing effect was minimal” and the “Rescue of TRC growth from inhibitory effects of WYC-209 by pretreatment” value (B16-F1 TRCs [2]) was “rescued the TRC growth”.
In the case of `COCCOCOc1cc2ccc(-c3ccc(C(=O)O)cc3)cc2cc1C12CC3CC(CC(C3)C1)C2` [CD2665, reference compound], the “Impact of antagonist alone on TRC growth” value (B16-F1 TRCs [2]) is reported as “no impact on TRC growth”, the “Rescue of TRC growth from inhibitory effects of Tazarotene by pretreatment” value (B16-F1 TRCs [2]) is reported as “rescuing effect was minimal” and the “Rescue of TRC growth from inhibitory effects of WYC-209 by pretreatment” value (B16-F1 TRCs [2]) is reported as “rescued the TRC growth”.
